Where two headings read alike, the source gives them in different places.
Legend:
Giardia infections = settings: cited from earlier work; for clinical failure rates: 5-nitroimidazoles
[1] = system: Neonatal foreskin fibroblast (NFF) cells; assay: Mammalian cell cytotoxicity assay (sulforhodamine B); format: cell-based, human; settings: for inhibition at 20 µM: ±SD; for SI (48h Gd): Table S2, NFF vs 48 h Giardia IC50
Outline: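 Dose–response from a top concentration of 100 µM was run on NFF cells, with sulforhodamine B as the viability read-out. Plates included media, no-compound, DMSO and chloroquine controls. Fibroblast IC50 was divided by the G. duodenalis BRIS/91/HEPU/1279 IC50 to give the selectivity index.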

[2] = system: G. duodenalis BRIS/91/HEPU/1279; assay: Primary Giardia screen at 10 µM (live-cell imaging, automated counting); format: cell-based, Giardia duodenalis; settings: for inhibition at 10 µM: Giardia duodenalis
Outline: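 Singlicate, 10 μM final, 0.2% DMSO; sealed chambers, 3% O2/5% CO2/N2. Counts by live-cell imaging at 24 h and 48 h. % growth vs vehicle, media background subtracted; Z' per plate.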

[3] = system: G. duodenalis BRIS/91/HEPU/1279; assay: Giardia dose response assay, assemblage B; format: cell-based, Giardia duodenalis
Outline: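 Assemblage B trophozoites (BRIS/91/HEPU/1279, 1.5 × 10^4 parasites/well) faced 8–12-point doubling dilutions in duplicate, incubated 48 h at 37 °C under 3% O2, 5% CO2 in N2. Parasites were imaged and counted at 24 and 48 h. Growth inhibition was taken versus vehicle controls minus background, with IC50 by log-linear interpolation.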

[4] = system: Acinetobacter baumannii (ATCC 19606); assay: Anti-bacterial activity assay; format: cell-based; settings: ATCC19606, 50 µM
Outline: (§1)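 Compounds tested once at 50 µM in duplicate against mid-log cultures at 5 × 10^5 CFU/mL, incubated 18 h at 37 °C without shaking. Growth read by absorbance at 600 nm; percentage inhibition calculated relative to bacteria-only wells. Vancomycin (Gram-positive) and colistin (Gram-negative) served as plate controls.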

[5] = system: Escherichia coli (ATCC 25922); assay: Anti-bacterial activity assay; format: cell-based; settings: for inhibition at 50 µM: Escherichia coli, ATCC25922, 50 µM, read-out: Bacterial Inhibition E. coli
Outline: as §1

[6] = system: Klebsiella pneumoniae (ATCC 700603); assay: Anti-bacterial activity assay; format: cell-based; settings: ATCC700603, 50 µM, read-out: Bacterial Inhibition K. pneumoniae
Outline: as §1

[7] = system: methicillin resistant Staphylococcus aureus (ATCC 43300); assay: Anti-bacterial activity assay; format: cell-based; settings: Staphylococcus aureus, ATCC43300, 50 µM; read-out: Bacterial Inhibition S. aureus
Outline: as §1

BRIS/87/HEPU/713 = assay: Giardia dose response assay, assemblage A; format: cell-based; settings: Giardia duodenalis
Experimental: (§2) In these assays, compounds were serially diluted (8–12-point doubling dilutions in technical duplicate) in DMSO control media, with all test wells inoculated with parasites (1.5 × 10^4 parasites for BRIS/91/HEPU/1279 and BRIS/91/HEPU/1279m1, or 3 × 10^3 parasites for BRIS/87/HEPU/713). Albendazole (positive control) plates were run with each experiment. All plates were sealed in culture chambers and gassed with 3% O2, 5% CO2 in N2 and incubated at 37 °C for 48 h, with parasites imaged and enumerated at 24 and 48 h. Growth inhibition was calculated as a percentage relative to vehicle controls minus any background as described above and IC50 values were determined using log-linear interpolation as previously described. […] Statistical comparison of IC50 values when required were performed using Student’s t-test.

BRIS/91/HEPU/1279m1 = assay: Giardia dose response assay, metronidazole resistant line; format: cell-based; settings: Giardia duodenalis
Experimental: as §2

BRIS/91/HEPU/1279 = assay: Combination studies (isobolograms); format: cell-based, Giardia duodenalis; settings: 24 h
Experimental: The activity of each combination was assessed against BRIS/91/HEPU/1279. A total of 14, 8-point dose–response assays were performed with each combination in triplicate on at least two occasions in 96-well microtiter plates (1.5x10^4 BRIS/91/HEPU/1279 trophozoites per well). Plates were incubated in chambers gassed with 3% O2, 5% CO2 in N2 at 37 °C for 24 h before parasite growth was assessed by imaging. Media and vehicle controls were included on each plate. […] Isoboles were fitted using the standard hyperbolic function defined by the parameter I as previously described, where Positive values of I indicate synergy, negative values indicate antagonism and addition occurs when I equals 0. The significance of the difference of I from zero was assessed with Student’s t test.

[8] = In vivo tolerability assessment
Experimental: In brief, separate groups of three mice were administered single, increasing doses of compound via oral gavage to examine tolerability. […] After a week of observation, mice in each group were euthanized and samples collected for pathology assessment. The highest dose assessed was 50 mg/kg. To further assess the safety of SN00797640, this highest dose was also administered to a final group of three mice, daily for three days.

[9] = 24 h, first singlicate assay, read-out: % Inhibition n=1 24h
[10] = 24 h, re-assessment, read-out: % Inhibition n=2 24h
[11] = 24 h, read-out: Average % Inhibition 24h
[12] = 48 h, first singlicate assay, read-out: % Inhibition n=1 48h
[13] = 48 h, re-assessment, read-out: % Inhibition n=2 48h
[14] = 48 h, read-out: Average % Inhibition 48h
[15] = Giardia duodenalis, 24 h, read-out: G. duodenalis IC50 24h, Table S2, 24 h, ±SD, max 10 µM
[16] = Giardia duodenalis, 48 h, Table S2, 48 h, ±SD, max 10 µM, read-out: G. duodenalis IC50 48h

Compound	inhibition at 10 µM [2, 9]	inhibition at 10 µM [2, 10]	inhibition at 10 µM [2, 11]	inhibition at 10 µM [2, 12]	inhibition at 10 µM [2, 13]	inhibition at 10 µM [2, 14]	IC50 [3, 15]	IC50 [3, 16]	inhibition at 20 µM ([1]; Homo sapiens, NFF)	inhibition at 50 µM [4]	inhibition at 50 µM [5]	inhibition at 50 µM [6]	inhibition at 50 µM [7]	also measured
CCCSc1ccc2nc(NC(=O)OC)[nH]c2c1 [Albendazole]	–	–	–	–	–	–	–	–	–	–	–	–	–	treatment efficacy rates (Giardia infections): 25–90%
Cc1ncc([N+](=O)[O-])n1CCO [Metronidazole, reference compound]	–	–	–	–	–	–	–	–	–	–	–	–	–	IC50 ([1]; Homo sapiens, NFF, mean ± SD, read-out: IC50 NFF): > 75 µM; clinical failure rates (Giardia infections): 40–70%
COc1c(C)cnc(Cn2cnc([N+](=O)[O-])c2)c1C [SN00782023, COc1c(C)cnc(Cn2cnc(c2)N(=O)=O)c1C]	40.2%	11.3%	25.8%	83.4%	82.5%	82.9%	6.8 µM	6.51 µM	-6.3 ± 3.6%	9.49%	5.99%	8.15%	10%	SI (48h Gd) [1]: > 3
Cc1ccc(C(=O)Nc2ccc3c(c2)N(C)C(=O)c2ccccc2O3)cc1 [SN00797640]	97.5%	83.1%	90.3%	96.3%	97.2%	96.8%	0.38 ± 0.05 µM	–	–	–	3.64%	–	–	Average % Inhibition 48h ([2]; 48 h): > 90%; fold more potent than metronidazole ([3]; 48 h IC50): > 10 fold; IC50 ([3]; Giardia duodenalis, 48 h, BRIS/91/HEPU/1279, 48 h, mean ± SD, read-out: IC50 Giardia (48 h)): 0.18 µM; IC50 ([3]; Giardia duodenalis, 48 h, BRIS/91/HEPU/1279, 48 h, read-out: 48 h IC50): 0.181 µM; IC50 (BRIS/87/HEPU/713; 48 h, read-out: 48 h IC50): 0.115 ± 0.03 µM; IC50 (BRIS/87/HEPU/713; read-out: 24 h IC50, 24 h): 0.164 ± 0.011 µM; IC50 (BRIS/91/HEPU/1279m1; 24 h, read-out: 24 h IC50): 0.16 ± 0.027 µM; IC50 (BRIS/91/HEPU/1279m1; 48 h, read-out: 48 h IC50): 0.124 ± 0.003 µM; SI (48h Gd) [1]: > 55; Bacterial Inhibition E. coli ([5]; 50 µM): < 5%; interaction parameter I (BRIS/91/HEPU/1279; combined with albendazole, synergistic): 4.7; interaction parameter I (BRIS/91/HEPU/1279; combined with metronidazole, additive): −0.3; tolerability ([8]; oral gavage, up to 50 mg/kg daily for three consecutive days): well tolerated with no adverse reactions detected; histological analysis of liver and kidney samples ([8]; test animals of tolerability study): no toxicity
COc1ccc(NC(=O)c2ccc(-c3cc(NC4CCCCC4)ncn3)cc2)cc1 [SN00794765, COc1ccc(cc1)NC(=O)c1ccc(cc1)c1ncnc(NC2CCCCC2)c1]	29.5%	4.7%	17.1%	63.5%	38.6%	51%	> 10 µM	> 10 µM	23.1 ± 8.6%	-0.4%	3.31%	1.61%	2.05%	–
COc1ccccc1N1CCN(C(=O)c2cc3c(C)nn(-c4ccc(C)cc4)c3s2)CC1 [SN00793100, COc1ccccc1N1CCN(CC1)C(=O)c1cc2c(C)nn(c3ccc(C)cc3)c2s1]	51.9%	44%	48%	62.1%	69.2%	65.6%	> 10 µM	> 10 µM	46.7 ± 6.8%	9.06%	1.35%	7.52%	10.1%	–
COc1cc(OC)c(C2=CCN(C(=O)c3ccc(C)s3)CC2)c(OC)c1 [SN00769982, COc1cc(OC)c(C2=CCN(CC2)C(=O)c2ccc(C)s2)c(OC)c1]	46.2%	0%	23.1%	78.1%	40.5%	59.3%	> 10 µM	9.59 µM	-9.1 ± 3.8%	2.57%	6.08%	15.6%	3.41%	–
CCS(=O)(=O)CCn1c([N+](=O)[O-])cnc1C [tinidazole]	–	–	–	–	–	–	–	–	–	–	–	–	–	clinical failure rates (Giardia infections): 40–70%
Cc1ccc(C(=O)Nc2cc(-c3nc(C)cs3)sc2C)cc1 [SN00798457, Cc1ccc(cc1)C(=O)Nc1cc(sc1C)c1scc(C)n1]	39.3%	16.7%	28%	60%	52.2%	56.1%	> 10 µM	> 10 µM	16.3 ± 20.4%	-2.12%	1.98%	0.63%	-16.6%	–
Cc1ccc(NC(=O)CN2C(=O)C3CCCCN3c3ccc(C(=O)N4CCCC4)cc32)cc1 (centres unmarked) [SN00792764, Cc1ccc(cc1)NC(=O)CN1C(=O)C2CCCCN2c2ccc(cc12)C(=O)N1CCCC1]	43.9%	27.1%	35.5%	59%	65.8%	62.4%	> 10 µM	> 10 µM	16.6 ± 20.4%	4.12%	3.43%	5.08%	-1.85%	inhibition at 10 µM ([3]; Giardia duodenalis, read-out: % inhibition @ 10µM 48h (comment), Table S2 comment, 10 µM, 48 h): 45.9%
O=[N+]([O-])c1cc(F)ccc1Sc1nnc(N2CCOCC2)s1 [SN00781107, Fc1ccc(Sc2nnc(s2)N2CCOCC2)c(c1)N(=O)=O]	34%	27.7%	30.8%	64.2%	57.4%	60.8%	6.87 ± 1.88 µM	1.86 ± 2.52 µM	-19.8 ± 44.9%	3.43%	2.28%	10.6%	4.13%	–

From publication PMC9775191, “A Subset Screen of the Compounds Australia Scaffold Library Identifies 7-Acylaminodibenzoxazepinones as Potent and Selective Hits for Anti-Giardia Drug Discovery” (Biomedicines, 2022)
